In patent US20070203079A1, “Methods of using small molecule compounds for neuroprotection” (priority 2005, published 2007):
Counter-ions that a name gives are not always drawn. Marks after values point to notes of the source that are not given here.

Assays:
[1] = system: Pdat-1::GFP+Pdat-1::α-synuclein+Pdat-1::torsinA worms; assay: α-synuclein toxicity assay, wt torsinA; assay type: in vivo, C. elegans
Description: (§1) We have previously shown that torsinA can prevent dopamine (“DA”) neuron degeneration resulting from overexpression of α-synuclein in the DA neurons of C. elegans, while torsinA (“ΔE”) has a reduced neuroprotection (Cao et al., J Neurosci, 2005, 25(1): 3801-3812). Specifically, only 26.1±5.3% of the worms expressing Pdat-1::GFP+Pdat-1::α-synuclein maintained all 4 wildtype CEP DA neurons as 4 day adults while the percentages of the worms expressing Pdat-1::GFP+Pdat-1::α-synuclein+Pdat-1::torsinA and Pdat-1::GFP+Pdat-1::α-synuclein+Pdat-1:: torsinA (ΔE) are 57.3±1.6% and 42.2±7.3%, respectively (Cao et al., J Neurosci, 2005, 25(1): 3801-3812) (FIG. 8).
(§2) All molecules are coded by Prestwick Library number. TorsinA-dependent compounds identified from the aggregation assay have torsinA-specific effects and, therefore, are likely to function in the same manner in the α-synuclein toxicity assay. All three α-synuclein transgenic lines were exposed to the five torsinA-dependent compounds to determine their torsinA-specificity (FIG. 9). As expected, none of these compounds had any effect in Pdat-1::GFP+Pdat-1::α-synuclein when torsinA expression is absent.

[2] = system: protein misfolding and aggregation in transgenic worms; assay: Preventative assay of protein aggregation (drug from hatching to L2 stage); assay type: in vivo, C. elegans; conditions: exposure from hatching to L2 stage; scored at L3 and young adult
Protocol: To see the preventative effects of the candidate drug compounds on protein misfolding and aggregation, five gravid adult worms were placed onto each drug plate and grown at 20° C. for approximately 3 days. 35-40 Fl worms at L2 stage were picked and transferred to a control plate with the same concentration of control solvent compared to the drug plate. Thirty worms at L3 stage were counted for aggregate number 8 hours later. Thirty young adults were analyzed 32 hours later.
To calculate the scaled effectiveness of special regimen of drugs on worms based on standardized decrease in protein aggregates. The following formula was used: (A−B)/(A−C)×100%, where
A=number of aggregates for worms growing on solvent control plates
B=number of aggregates for worms grown on the specific drug plate for the entire life of the worms
C=number of aggregates for worms that received pre-L2 exposure and were then removed to solvent control plates
If the regimen has no effect, the value would equal 0%. Conversely, if the regimen was as effective as raising the worms on the drug for their entire life, the value would equal 100%.

[3] = system: Pdat-1::GFP+Pdat-1::α-synuclein+Pdat-1:: torsinA (ΔE) worms; assay: α-synuclein toxicity assay, mutant torsinA; assay type: in vivo, C. elegans
Description: as §1, §2

[4] = system: worms containing Punc-54::Q82::GFP+Punc-54::torsinA+Punc54::torsinA (ΔE); assay: Screen for reduction of polyglutamine protein aggregates in worms with wt and mutant torsinA; assay type: in vivo, C. elegans; conditions: differentiated by Q82::GFP lines without torsinA, with wt torsinA or with mutant torsinA
Protocol: (§3) C elegans nematodes were grown at 20° C. on NGM plates as described by Brenner (Brenner, Genetics, 1974, 77: 71-94). Several transgenic C. elegans lines were used for primary screens of the Prestwick small molecule library. A transgenic worm line expressing Punc-54::Q82-GFP; with both wild type (“wt”) (Punc=54: :torsinA) or mutant (Punc-54::torsinA(ΔE)). Torsin-A expresses a phenotype that results in visible protein aggregation under fluorescent microscope. Transgenic worms were plated on drug plates and progeny were studied for a return to soluble protein.
(§4) Drugs were administered to C. elegans according to a standard procedure (Rand and Johnson, Methods Cell Biol, 1995, 48: 187-204), by mixing the solubilized drug with the agar medium on which the worms are grown. This mode of administration allows the continuous exposure of worms to the drug.
Each drug was first dissolved in an appropriate solvent, followed by adding the drug solution into pre-autoclaved media, with the volume of drug solution already taken into account. […] Each plate was seeded with 100 μl concentrated E. coli OP50 bacteria.
(§5) The screening assays used to identify the compounds use protein aggregation readouts to determine the specificities of molecular action. […]
(§6) The methods for the aggregate analysis assay are described in Caldwell et al. (Hum Mol Genetics, 2003, 12(3): 307-319). […] MetaMorph Software (Universal Imaging Inc.) was used for pseudocoloration of images, image overlay, and aggregate size quantitation. For each worm line analyzed, average aggregate size was determined by capturing images of all aggregates in the posterior region of 30 L3-staged animals (for Q82::GFP aggregates) or all aggregates in 30 adult animals/day (for Q19::GFP analyses) at 1000× magnification. […]
(§7) To see the effect of the candidate compounds on suppressing protein misfolding and aggregation, five gravid adult worms were placed onto each drug plate and grown at 20° C. for approximately 3 days. Thirty Fl worms at L3 stage and young adult stage were counted for aggregate number.

[5] = 1 gram/kg dose, fasting normal individual; cited from earlier work
[6] = system: worms expressing Punc-54::Q82::GFP+Punc-54::torsinA with wt torsinA only; assay: Protein aggregate assay in worms with wt torsinA only; assay type: in vivo, C. elegans
Protocol: as §3, §4
Each drug was first dissolved in an appropriate solvent, followed by adding the drug solution into pre-autoclaved media, with the volume of drug solution already taken into account. […]
as §5, §6, §7

[7] = system: worms expressing Punc-54::Q82::GFP+Punc-54::torsinA (ΔE) with a mutant torsinA only; assay: Protein aggregate assay in worms with mutant torsinA only; assay type: in vivo, C. elegans
Protocol: C elegans nematodes were grown at 20° C. on NGM plates as described by Brenner (Brenner, Genetics, 1974, 77: 71-94). Several transgenic C. elegans lines were used for primary screens of the Prestwick small molecule library. A transgenic worm line expressing Punc-54::Q82-GFP; with both wild type (“wt”) (Punc=54: :torsinA) or mutant (Punc-54::torsinA(ΔE)). Torsin-A expresses a phenotype that results in visible protein aggregation under fluorescent microscope. Transgenic worms were plated on drug plates and progeny were studied for a return to soluble protein. […]
as §5, §6

[8] = system: transgenic worm line Pdat-1::CAT-2; assay: Neurodegeneration by overexpression of cat-2 (tyrosine hydroxylase); assay type: in vivo, C. elegans
Description: Overexpression of cat-2, the worm homologue for tyrosine hydroxylase, results in increased intraneuronal dopamine production and a characteristic loss of dopaminergic neurons in 75% of transgenic worms as compared to wild type (Cao et al., J Neurosci, 25(1):3801-3812). Co-expression of worm or human torsin proteins reduces the loss of dopaminergic neurons to a slight degree although neuronal degeneration is still present. The purpose of these experiments was to determine the effect of small molecule compounds in the Prestwick library in another different C. elegans model of neurodegeneration.
Worms were cultured using the same methods described above. A transgenic worm line expressing Pdat-1::CAT-2 expresses a phenotype that results in visible neurodegeneration at all developmental stages in an integrated line, in which only approximately 55% of 7 day old animals maintained all four CEP neurons. […] Compound 166 is an example of one such compound.
To further examine the neuroprotective effect of meclofenamic acid and lidocaine, we used a transgenic line (Pdat-1::CAT-2) we previously described (Cao et al., J Neurosci, 2005, 25(1): 3801-3812). Overexpression of cat-2, the C. elegans homolog of the tyrosine hydroxylase (“TH”) gene, causes a high level of DA production and as a result, DA neuron degeneration is observed (Cao et al., J Neurosci, 2005, 25(1): 3801-3812). […] We also tested whether meclofenamic acid was able to suppress CAT-2-induced neurodegeneration. […] Therefore, meclofenamic acid can protect DA neurons from degeneration produced by overexpression of the dopamine precursor, tyrosine hydroxylase.

GFP::DAT-1 = assay: Pdat-1::GFP::DAT-1 expression within DA neurons; assay type: in vivo, C. elegans; conditions: for Neurons with cell body and dendritic/axonal GFP: water control 70%; for Neurons with cell body and dendritic/axonal GFP / Mean pixel intensity of cell bodies ± SEM (fluorescence intensity): sodium salt; for Mean pixel intensity of cell bodies ± SEM (fluorescence intensity): water control 1970 ± 80, compounds at 1.85, 1.49, 1.86 mM
[9] = system: transgenic worms containing the transgene Pdat-1::GFP without any torsinA expression; assay: 6-OHDA dopaminergic neurodegeneration in worms without torsinA; assay type: in vivo, C. elegans; conditions: no torsinA expression
[10] = Pdat-1::GFP::DAT-1, listed as Meclofenamic acid sodium salt
[11] = Pdat-1::GFP::DAT-1, listed as meclofenamic acid

SMILES | enhanced wild type DA neuron survival [1] | preventative effect on protein aggregation [2] | enhanced DA neuron survival [3] | Specificity in worm assay [4] | half-life [5] | reduction of protein aggregation [6] | reduction of aggregation [7] | neuroprotective effect against CAT-2-induced neurodegeneration ([8]; Pdat-1::CAT-2) [%] | neuroprotective action on dopaminergic neurons overexpressing cat-2 ([8]; Pdat-1::CAT-2, result in words) | Worms with no GFP (GFP::DAT-1; Pdat-1::GFP::DAT-1, water control 0%) [%] | Neurons with cell body GFP only (GFP::DAT-1; Pdat-1::GFP::DAT-1, water control 30%) [%^e] | Neurons with cell body and dendritic/axonal GFP (GFP::DAT-1; [10]) [%^d] | Neurons with cell body and dendritic/axonal GFP (GFP::DAT-1; [11]) [%] | Mean pixel intensity of cell bodies ± SEM (fluorescence intensity) (GFP::DAT-1; [10]) [A.U.] | Mean pixel intensity of cell bodies ± SEM (fluorescence intensity) (GFP::DAT-1; [11]) [A.U.] | effect on GFP::DAT-1 level (GFP::DAT-1; result in words) | reduction of 6-OHDA-mediated neurodegeneration [9]
CCn1cc(C(=O)O)c(=O)c2ccc(C)nc21 [Compound 187, Nalidixic Acid] | 28.9±4.9% | seem to be beneficial | no significant neuroprotection | wt torsinA | about 90 minutes | reduced protein aggregation |  |  |  |  |  |  |  |  |  |  | 
Cc1ccc(Cl)c(Nc2ccccc2C(=O)O)c1Cl [Compound 206, Meclofenamic acid sodium salt] | failed to show any significant neuroprotection | seem to be beneficial | 25±1.2% |  |  |  | reduced aggregation | 19±1.1 | demonstrated a reduction in the standardized decrease in dopaminergic neurodegeneration | 4.2 | 51.1 | 44.7 | 44.7 | 1740 ± 64 | 1740 | can down-regulate the level of DAT-1 protein directly | reduced the 6-OHDA-mediated neurodegeneration
